Consider 8 molecules from ChEMBL document CHEMBL4418492, “Myc modulators and uses thereof” (2018).

Assay [1] has as its target T1, Myc proto-oncogene protein (Homo sapiens, UniProt P01106). The assay is described as follows: Inhibition of Myc (unknown origin) expressed in HEK293T cells incubated for 16 hrs by firefly/renilla luciferase reporter gene assay. The assay is classed as cell-based.
The test system of assay [2] is NCI-H1975. The assay is described as follows: Cytotoxicity against human NCI-H1975 cells assessed as decrease in cell viability incubated for 72 hrs by CellTiter-Glo assay. Format: functional, cell-based. Conditions: NCI-H1975, 72 h; call rule not given here.
Assay [3] deals with Lymphoma cell line. Briefly: Cytotoxicity against mouse E-mu-Myc lymphoma cells assessed as decrease in cell viability incubated for 72 hrs by CellTiter-Glo assay. The assay is classed as functional, cell-based. (In general: In ATP-based viability assays light output follows the ATP content of the culture.)
Assay [4] deals with NAMALVA. The assay is described as follows: Cytotoxicity against human NAMALWA cells assessed as decrease in cell viability incubated for 72 hrs by CellTiter-Glo assay. The assay is classed as functional, cell-based.
Assay [5] has as its system HeLa. The assay is described as follows: Cytotoxicity against human HeLa cells assessed as decrease in cell viability incubated for 72 hrs by CellTiter-Glo assay. Format: functional, cell-based.
A short description of assay [6]: Cytotoxicity against human KLP1 cells assessed as decrease in cell viability incubated for 72 hrs by CellTiter-Glo assay. The assay is classed as functional, cell-based.
The target of assay [7] is T1, Myc proto-oncogene protein. Briefly: Binding affinity to Myc in cell lysates (unknown origin) assessed as c-Myc levels at 5 uM incubated using compound 19 beads by Western blotting based pull down assay relative to control. Conditions: Lysate. Format: subcellular. (In general: A western blot detects proteins with antibodies after separation by electrophoresis.)
Assay [8] concerns the target T1, Myc proto-oncogene protein. The assay is described as follows: Binding affinity to Myc in cell lysates (unknown origin) assessed as c-Myc levels at 1 uM incubated using compound 19 beads by Western blotting based pull down assay relative to control. Format: subcellular. Conditions: Lysate.
A short description of assay [9]: Cytotoxicity against human SNUC5 cells assessed as decrease in cell viability incubated for 72 hrs by CellTiter-Glo assay. The assay is classed as functional, cell-based.
For assay [10], the target named is T1, Myc proto-oncogene protein. The assay is described as follows: Binding affinity to Myc in cell lysates (unknown origin) assessed as c-Myc levels at 5 uM incubated using compound 55 beads by Western blotting based pull down assay relative to control. Format: subcellular. Conditions: Lysate.

A value given as a limit tells only on which side of the number the result lay.

T1 sequence (P01106 whole entry): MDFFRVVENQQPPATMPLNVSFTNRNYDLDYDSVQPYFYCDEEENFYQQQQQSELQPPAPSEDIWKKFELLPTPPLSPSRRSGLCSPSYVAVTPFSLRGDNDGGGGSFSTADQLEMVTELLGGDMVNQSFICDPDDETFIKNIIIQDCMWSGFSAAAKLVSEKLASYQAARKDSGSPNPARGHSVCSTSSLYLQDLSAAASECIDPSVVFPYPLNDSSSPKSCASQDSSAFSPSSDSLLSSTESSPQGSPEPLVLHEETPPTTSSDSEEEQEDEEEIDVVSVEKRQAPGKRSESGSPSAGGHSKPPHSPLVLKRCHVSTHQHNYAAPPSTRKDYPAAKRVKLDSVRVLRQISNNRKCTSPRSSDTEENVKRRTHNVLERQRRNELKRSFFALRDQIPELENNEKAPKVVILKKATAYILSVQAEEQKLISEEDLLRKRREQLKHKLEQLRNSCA

Regarding `O=C(c1ccc(Sc2nc3ccccc3[nH]2)o1)N1CCOCC1`, the IC50 – broadly, the concentration that inhibits the measured activity by half – in assay [1] was “Not Active”.
For `CC(C)N1C(=O)S/C(=C\c2ccc(-c3nc4ccccc4[nH]3)o2)C1=O`, the results for the IC50 in [2], in [3] and in assay [4] were 45.3 µM, > 50 µM and 20.1 µM, respectively.
On to `COC(=O)c1ccc(Sc2nc3ccccc3[nH]2)o1`, for which the IC50 entry in [1] is “Not Active”.
As for `O=C(O)CN1C(=O)S/C(=C\c2ccc(Sc3nc4ccccc4[nH]3)o2)C1=O`, in [1], the IC50 result is listed as “Not Active”.
The same measure, in the same setting: the same measure for `O=C1NC(=O)C(=Cc2ccc(Sc3nc4ccccc4[nH]3)o2)C(=O)N1`: “Not Active”; for `O=C(O)c1ccc(Sc2nc3ccccc3[nH]2)o1`: “Not Active”.
As for `O=C(CCCC[C@@H]1SC[C@@H]2NC(=O)N[C@@H]21)NCCCN1C(=O)S/C(=C\c2ccc(Sc3nc4ccccc4[nH]3)o2)C1=O`, the IC50 in assay [2] is > 50 µM.
`CC(C)N1C(=O)S/C(=C\c2ccc(Sc3nc4ccccc4[nH]3)o2)C1=O`: the IC50 was 3.32 µM in [5]; 4.64 µM in assay [6]; 2.71 to 24.9 µM in assay [2]; 11.7 µM in [9]; 17.3 to 21.1 µM in [4]. Also, the Activity in assay [7] was 73 to 84%; in [8] it was 91%; in assay [10], 52%.
